Test results from patent publication US7022736B2, “Enzyme inhibitors” (Istituto Di Ricerche Di Biologia Molecolare P Angeletti SpA, priority 1998, dated 2006).
Read-outs that look alike come from different tables or passages of the source.

Experiments:
[1] = target: T1, reverse transcriptase of HIV (HIV-1 RT) (Human immunodeficiency virus type 1 group M subtype B, UniProt P03366); experiment: Inhibition of HIV-1 reverse transcriptase ([3H]dTTP incorporation); type: biochemical, Human Immunodeficiency Virus-1; settings: Tables IXa-IXc; unit inferred; NA=not active as an inhibitor
T1 construct: the reverse transcriptase of HIV (HIV -1RT) from Boehringer Mannhium; purchased Boehringer Mannheim (printed 'Boehringer Mannhium')
Procedure: Test for Inhibition of Human Immunodeficiency Virus-1 Reverse Transcriptase
Analogous assays employed the reverse transcriptase of HIV (HIV -1RT) from Boehringer Mannhium.
Incorporation of radioactive dTTP was measured as follows. The standard reaction (100 μl) was carried out in a buffer containing 50 mM tris/HCl pH 8.2, 2.5 mM MgCl 2, 1 mM DTT, 80 mM KCl, 5 mM EGTA, 0.05% Triton X-100, 1 μCi[3H] dTTP (40 Ci/mmol, NEN), 10 μM […] and 10 μg/ml poly(A)/dT (from Pharmacia).

[2] = target: T2, HCV RdRp (NS5B RNA-dependent RNA polymerase) (Hepatitis C virus genotype 1b, UniProt P26663); experiment: Inhibition of hepatitis C virus RdRp (poly(A)/oligo(U), [3H]UTP incorporation); type: biochemical
T2 construct: The HCV NS5B protein is the viral RdRp; made in house; host or cells: insect cells infected with recombinant baculovirus
Procedure: In initial tests, the compounds were tested to see if they were effective as inhibitors of the RNA-dependent RNA polymerase (RdRp) of hepatitis C virus (HCV). The HCV NS5B protein is the viral RdRp; compounds capable of interfering with the activity of this enzyme are thus expected to block viral replication.
Test for Inhibition of Hepatatis C Virus RdRp
WO96/37619 describes the production of recombinant HCV RdRp from insect cells infected with recombinant baculovirus encoding the enzyme. […] The reference describes a polymerisation assay using poly (A) as a template and oligo (U) as a primer. Incorporation of tritiated UTP is quantified by measuring acid-insoluble radioactivity. The present inventors have employed this assay to screen the various compounds described above as inhibitors of HCV RdRp and other virally encoded polymerases.
Incorporation of radioactive UMP was measured as follows. The standard reaction (100 μl) was carried out in a buffer containing 20 mM tris/HCl pH 7.5, 5 mM MgCl2, 1 mM DTT, 50 mM NaCl, 1 mM EDTA, 2 OU Rnasin (Promega), 0.05% Triton X-100, 1 μCi[^3H] UTP (40 Ci/mmol,NEN), 10 μM UTP and 10 μg/ml poly (A). Oligo (U)12 (1 μg/ml, Genset) was added as a primer. The final NSSB enzyme concentration was 20 nM. After 1 hour incubation at 22° C. the reaction was stopped by adding 100 μl of 20% TCA and applying samples to DE81 filters. The filters were washed thoroughly with 5% TCA containing 1M Na2HPO4/NaH2PO4, pH 7.0, rinsed with water and then ethanol, air dried, and the filter-bound radioactivity was measured in the scintillation counter. By carrying out the reaction in the presence of various concentrations of each of the compounds set out above it was possible to determine IC50 values for each compound with the formula: % residual activity=100/(1+[I]/IC50)^s where [I] is the inhibitor concentration and “s” is the slope of the inhibition curve. Test for Inhibition of Hepatitis B Virus Polymerase

[3] = Tables I-VIII, 20 nM NS5B, 1 hour at 22° C., read-out: IC 50 (μM), HCV-polymerase
[4] = Tables IXa-IXc, unit inferred, read-out: HCV (IC50)

T2 sequence (P26663 2420-3010): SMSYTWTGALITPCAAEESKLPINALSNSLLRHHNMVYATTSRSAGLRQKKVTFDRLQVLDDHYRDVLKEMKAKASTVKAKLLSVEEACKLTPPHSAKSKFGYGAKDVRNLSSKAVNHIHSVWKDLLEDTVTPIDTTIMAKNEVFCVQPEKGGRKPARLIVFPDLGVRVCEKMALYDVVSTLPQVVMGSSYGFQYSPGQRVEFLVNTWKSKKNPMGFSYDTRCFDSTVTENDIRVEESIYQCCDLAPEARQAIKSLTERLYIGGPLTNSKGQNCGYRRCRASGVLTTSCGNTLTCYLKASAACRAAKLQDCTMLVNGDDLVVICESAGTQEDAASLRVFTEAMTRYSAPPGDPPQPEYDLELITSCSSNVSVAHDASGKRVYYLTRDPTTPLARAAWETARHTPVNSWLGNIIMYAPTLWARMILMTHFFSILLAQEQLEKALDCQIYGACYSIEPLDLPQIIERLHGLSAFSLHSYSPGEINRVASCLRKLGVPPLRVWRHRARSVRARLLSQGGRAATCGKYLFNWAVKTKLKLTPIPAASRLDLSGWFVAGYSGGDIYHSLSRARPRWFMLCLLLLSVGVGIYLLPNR

Structure (SMILES)	IC50 [1] [µM]	IC50 [2, 3] [µM]	IC50 [2, 4] [µM]
Cc1ccc(C(=O)C=C(O)C(=O)O)cc1 [Example 161]	320	2.8	2.8
Cc1ccc(OCCCC#N)c(C(=O)C=C(O)C(=O)O)c1 [Example 21]	> 50	0.955	1
COc1cc(C)c(C#N)c(COc2cccc(C(=O)C=C(O)C(=O)O)c2)c1 [Example 111]	80	0.12	0.12
N#CCCCOc1ccc(Cl)cc1C(=O)C=C(O)C(=O)O [Example 36]	24	1.6	1.6
O=C(O)C(O)=CC(=O)c1cccc(NS(=O)(=O)c2c(Cl)cccc2Cl)c1 [Example 120]	80	0.36	0.36
N#Cc1ccc(Br)cc1COc1cccc(C(=O)C=C(O)C(=O)O)c1 [Example 113]	90	0.1	0.1
O=C(O)C(O)=CC(=O)c1ccccc1Cc1ccc(F)cc1 [Example 40]	12	8.3	8.3
N#Cc1cccc(Cl)c1COc1cccc(C(=O)C=C(O)C(=O)O)c1 [Example 107]	58	0.14	0.14
C=CCOc1ccccc1C(=O)C=C(O)C(=O)O [Example 16]	> 100	4.3	4.3
O=C(O)CCCOc1ccccc1C(=O)C=C(O)C(=O)O [Example 27]	> 50	2.84	3
O=C(O)C(O)=CC(=O)c1cccc(O)c1 [Example 23]	59	0.94	1
Cc1cccc(C(=O)C=C(O)C(=O)O)c1 [Example 19]	77	11.9	12
N#CCCCOc1ccccc1C(=O)C=C(O)C(=O)O [Example 20]	27	0.38	0.38
O=C(O)C(O)=CC(=O)C12CC3CC(CC(C3)C1)C2 [Example 243]	26.8	6.7	6.7
N#Cc1ccccc1OCc1cccc(C(=O)C=C(O)C(=O)O)c1 [Example 112]	90	1.33	1.33
N#CCCCOc1ccc(O)cc1C(=O)C=C(O)C(=O)O [Example 53]	37	0.115	0.115
O=C(O)C(O)=CC(=O)c1cc2c(s1)CCCC2c1ccccc1 (centres unmarked) [Example 214]	–	17	–
N#CCCCOc1ccc(N)cc1C(=O)C=C(O)C(=O)O [Example 63]	–	1.7	–
N#CCCCOc1cccc(C(=O)C=C(O)C(=O)O)c1 [Example 13]	–	2.6	–
O=C(O)C(O)=CC(=O)c1cccc(OCc2ccccc2Br)c1 [Example 89]	–	3.3	–
O=C(O)C(O)=CC(=O)c1cccc(NS(=O)(=O)c2ccc(-c3ccccc3)cc2)c1 [Example 124]	–	28	–
CC(C)(C)OC(=O)Nc1cccc(C(=O)C=C(O)C(=O)O)c1 [Example 61]	–	31	–
O=C(O)C(O)=CC(=O)c1cccn1-c1ccc(F)cc1 [Example 177]	–	25	–

Structure (SMILES)	IC50 [1] [µM]	IC50 [2, 3] [µM]	IC50 [2, 4] [µM]
CCCCCCOc1cccc(C(=O)C=C(O)C(=O)O)c1 [Example 30]	–	15	–
O=C(O)C(O)=CC(=O)c1cccc(NS(=O)(=O)c2cccc(Cl)c2)c1 [Example 131]	–	0.78	–
N#Cc1ccc(S(=O)(=O)Nc2cccc(C(=O)C=C(O)C(=O)O)c2)cc1 [Example 74]	–	3.6	–
O=C(O)C(O)=CC(=O)c1cccc(Cc2ccc(F)cc2)c1 [Example 46]	–	30.1	–
O=C(O)C(O)=CC(=O)c1cccc(Cn2nc3ccccc3n2)c1 [Example 153]	–	19	–
N#CCCCOc1ccc(OCCCC#N)c(C(=O)C=C(O)C(=O)O)c1 [Example 35]	–	6.1	–
O=C(O)C(O)=CC(=O)c1cccc(NS(=O)(=O)c2c(Cl)sc(Cl)c2Br)c1 [Example 130]	–	0.14	–
N#Cc1cccc(Cn2ccc(C(=O)C=C(O)C(=O)O)c2)c1 [Example 220]	–	4.6	–
COc1ccc(Cl)cc1S(=O)(=O)Nc1cccc(C(=O)C=C(O)C(=O)O)c1 [Example 129]	–	1.6	–
Cc1cc(S(=O)(=O)Nc2cccc(C(=O)C=C(O)C(=O)O)c2)c(C)cc1Cl [Example 147]	–	1.3	–
O=C(O)C(O)=CC(=O)c1cccn1Cc1ccccc1 [Example 176]	–	29	–
O=C(O)C(O)=CC(=O)c1cccc(NS(=O)(=O)c2ccc(Cl)c(Cl)c2)c1 [Example 136]	–	0.2	–
N#Cc1ccc(COc2ccccc2C(=O)C=C(O)C(=O)O)cc1 [Example 25]	–	28	–
O=C(O)C(O)=CC(=O)c1cccc(NS(=O)(=O)CCCCl)c1 [Example 134]	–	23	–
O=C(O)C(O)=CC(=O)c1cccc(NS(=O)(=O)Cc2ccccc2)c1 [Example 108]	–	6.9	–
Cc1ccc(C(=O)CC(=O)C(=O)O)o1 [Example 217]	–	58	–
O=C(O)C(O)=CC(=O)c1cccc(NS(=O)(=O)c2cc(Cl)c(Oc3ccc([N+](=O)[O-])cc3Cl)c(Cl)c2)c1 [Example 135]	–	21	–
CCCSc1ccccc1C(=O)C=C(O)C(=O)O [Example 34]	–	9.6	–
O=C(O)C(O)=CC(=O)c1cccc(NS(=O)(=O)c2ccc(F)c(Cl)c2)c1 [Example 143]	–	0.45	–
CC1(C(=O)C=C(O)C(=O)O)CC1 [Example 239]	–	9.4	–
O=C(O)C(O)=CC(=O)C1(c2ccccc2)CCN(C(=O)N(c2ccccc2)c2ccccc2)CC1 [Example 249]	–	60	–
N#Cc1ccc(-c2ccccc2)cc1COc1cccc(C(=O)C=C(O)C(=O)O)c1 [Example 116]	–	0.3	0.3
O=C(O)C(O)=CC(=O)c1cccc(NS(=O)(=O)c2ccc(Cl)cc2Cl)c1 [Example 151]	–	0.5	–

Structure (SMILES)	IC50 [1] [µM]	IC50 [2, 3] [µM]	IC50 [2, 4] [µM]
O=C(O)C(O)=CC(=O)c1cccc(Cc2cccc(Cl)c2)c1 [Example 43]	–	20	–
O=C(O)C(O)=CC(=O)C1(c2ccccc2)CCN(S(=O)(=O)c2ccc(Cl)c(Cl)c2)CC1 [Example 250]	–	17	–
O=C(O)C(O)=CC(=O)c1cccc(NS(=O)(=O)c2cc(Cl)cc(Cl)c2O)c1 [Example 127]	–	0.3	–
O=C(O)C(O)=CC(=O)c1cccc(C2=CCCc3ccccc32)c1 [Example 47]	–	20.7	–
O=C(O)C(O)=CC(=O)C1CCCCC1 [Example 256]	–	25	–
O=C(O)C(O)=CC(=O)c1ccc(N2CCc3ccccc3C2)s1 [Example 215]	–	15.3	–
CC1=C(C(=O)C=C(O)C(=O)O)CCC1 [Example 255]	–	16.7	–
N#CCCCOc1ccc(Br)cc1C(=O)C=C(O)C(=O)O [Example 54]	–	2.3	–
O=C(O)C(O)=CC(=O)c1cccc(OCCCCn2c(C(F)(F)F)nc3ccccc32)c1 [Example 22]	–	19	–
O=C(O)C(O)=CC(=O)c1ccc(N2CCCC2)s1 [Example 195]	–	11.1	–
O=C(C=C(O)C(=O)O)CC1CCCCC1 [Example 257]	–	50	–
O=C(O)C(O)=CC(=O)c1cccc(NS(=O)(=O)c2ccc(Cl)c([N+](=O)[O-])c2)c1 [Example 141]	–	0.56	–
Cc1ccc(Oc2ccccc2C(=O)C=C(O)C(=O)O)cc1 [Example 39]	–	22	–
O=C(O)C(O)=CC(=O)c1cccc(OC/C=C/c2ccccc2)c1 [Example 83]	–	9.4	–
O=C(O)C(O)=CC(=O)c1ccc(Cl)cc1 [Example 166]	–	20	–
O=C(O)C(O)=CC(=O)c1sccc1Sc1ccccc1 [Example 209]	–	12.6	–
Cc1ccccc1C(=O)C=C(O)C(=O)O [Example 2]	–	3	–
O=C(O)C(O)=CC(=O)c1ccc(O)cc1 [Example 162]	–	5.5	5.5
O=C(O)C(O)=CC(=O)c1cccn1Cc1ccccc1F [Example 182]	–	30	–
O=C(O)C(O)=CC(=O)c1ccccc1C(F)(F)F [Example 6]	–	18	–
O=C(O)C(O)=CC(=O)c1cccn1Cc1ccc2ccccc2c1 [Example 188]	–	12.7	–
